According to patent US7491827B2, “Aryl sulfonamides useful as inhibitors of chemokine receptor activity” (Millennium Pharmaceuticals, Inc., priority 2003, dated 2009):
Where two headings read alike, the source gives them in different places.

Molecular target: T1, cloned human CCR8 receptor stably expressed in L1.2 cells (Homo sapiens, UniProt P51685)
T1 construct: expressed in transfected cells
Assay: whole cell binding screen: inhibition of biotinylated human I309 binding to CCR8 (FMAT 8100 HTS)
Settings: biotinylated human I-309, 10 point concentration response starting at 10 μM
Summary of the method: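 L1.2 murine pre-B cells stably expressing human CCR8 (4.0×10^5 cells/mL) in HBSS/HEPES/fatty-acid-free BSA/azide buffer were mixed with biotinylated human I309 and compounds for 0.5 h, read by FMAT fluorescence. 10-point curves from 10 μM final; percent inhibition normalized to no-inhibitor and 100 nM unlabeled I309 controls.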

[1] = L1.2/hCCR8 cells, read-out: Ki of compounds to inhibit I-309 binding to CCR8
[2] = Ki of compounds to inhibit I-309 binding to CCR8, L1.2/hCCR8 cells

T1 sequence (P51685 whole entry): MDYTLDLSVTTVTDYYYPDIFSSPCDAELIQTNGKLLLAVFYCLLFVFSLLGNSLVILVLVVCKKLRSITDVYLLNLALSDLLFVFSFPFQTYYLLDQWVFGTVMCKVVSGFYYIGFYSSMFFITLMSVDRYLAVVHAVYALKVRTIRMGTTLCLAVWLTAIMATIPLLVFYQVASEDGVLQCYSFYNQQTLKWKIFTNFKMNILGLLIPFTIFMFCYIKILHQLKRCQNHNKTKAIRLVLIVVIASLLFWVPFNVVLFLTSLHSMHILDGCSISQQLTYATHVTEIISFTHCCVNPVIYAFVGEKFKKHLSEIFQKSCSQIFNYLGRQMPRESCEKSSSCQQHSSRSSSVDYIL

| Compound | Ki [1] | Ki [2] |
| --- | --- | --- |
| COc1cccc(NS(=O)(=O)c2ccc(NC(=O)c3ccccc3)c3ccccc23)c1 [Compound A-1, N-[4-(3-Methoxy-phenylsulfamoyl)-naphthalen-1-yl]-benzamide] | < 0.5 µM |  |
| COc1ccc(NS(=O)(=O)c2ccc(N3C(=O)c4ccccc4C3=O)c3ccccc23)cc1 [Compound A-2, 4-(1,3-Dioxo-1,3-dihydro-isoindol-2-yl)-naphthalene-1-sulfonic acid (4-methoxyphenyl)-amide] |  | < 30 µM |
| O=C(Nc1ccc(S(=O)(=O)NCc2ccccc2)c2ccccc12)c1ccccc1 [Compound A-3, N-(4-Benzylsulfamoyl-naphthalen-1-yl)-benzamide] |  | < 0.5 µM |
| O=C(Nc1ccc(S(=O)(=O)Nc2ccccc2)c2ccccc12)c1ccccc1 [Compound A-7, N-(4-Phenylsulfamoyl-naphthalen-1-yl)-benzamide] |  | < 1 µM |
| CN(C)CCNS(=O)(=O)c1ccc(NC(=O)c2ccccc2)c2ccccc12 [Compound A-9, N-[4-(2-Dimethylamino-ethylsulfamoyl)-naphthalen-1-yl]-benzamide] | < 30 µM |  |
| O=C(Nc1ccc(S(=O)(=O)NC2CCCCC2)c2ccccc12)c1ccccc1 [Compound A-10, N-(4-Cyclohexylsulfamoyl-naphthalen-1-yl)-benzamide] |  | < 1 µM |
| CC(C)NS(=O)(=O)c1ccc(NC(=O)c2ccccc2)c2ccccc12 [Compound A-11, N-(4-Isopropylsulfamoyl-naphthalen-1-yl)-benzamide] | < 30 µM |  |
| O=C(Nc1ccc(S(=O)(=O)NCc2ccncc2)c2ccccc12)c1ccccc1 [Compound A-13, N-{4-[(Pyridin-4-ylmethyl)-sulfamoyl]-naphthalen-1-yl}-benzamide] | < 30 µM |  |
| O=C(Nc1ccc(S(=O)(=O)Nc2ccncc2)c2ccccc12)c1ccccc1 [Compound A-14, N-[4-(Pyridin-4-ylsulfamoyl)-naphthalen-1-yl]-benzamide] | < 0.5 µM |  |
| O=C(Nc1ccc(S(=O)(=O)Nc2cccnc2)c2ccccc12)c1ccccc1 [Compound A-16, N-[4-(Pyridin-3-ylsulfamoyl)-naphthalen-1-yl]-benzamide] | < 30 µM |  |
| CCOC(=O)N1CCC(NS(=O)(=O)c2ccc(N3C(=O)c4ccccc4C3=O)c3ccccc23)CC1 [Compound A-18, 4-[4-(1,3-Dioxo-1,3-dihydro-isoindol-2-yl)-naphthalene-1-sulfonylamino]-piperidine-1-carboxylic acid ethyl ester] | < 0.5 µM |  |
| O=C(Nc1ccc(S(=O)(=O)NC2CCN(Cc3ccccc3)CC2)c2ccccc12)c1ccccc1 [Compound A-25, N-[4-(1-Benzyl-piperidin-4-ylsulfamoyl)-naphthalen-1-yl]-benzamide] | < 0.5 µM |  |
| CCc1ccc(NS(=O)(=O)c2ccc(NC(=O)c3ccccc3)c3ccccc23)cc1 [Compound A-26, N-[4-(4-Ethyl-phenylsulfamoyl)-naphthalen-1-yl]-benzamide] | < 0.5 µM |  |
| CC(C)c1ccc(NS(=O)(=O)c2ccc(NC(=O)c3ccccc3)c3ccccc23)cc1 [Compound A-28, N-[4-(4-Isopropyl-phenylsulfamoyl)-naphthalene-1-yl]-benzamide] | < 0.5 µM |  |
| O=C(Nc1ccc(S(=O)(=O)Nc2ccc(-c3ccccc3)cc2)c2ccccc12)c1ccccc1 [Compound A-29] | < 30 µM |  |
| O=C(Nc1ccc(S(=O)(=O)Nc2ccc(C(F)(F)F)cc2)c2ccccc12)c1ccccc1 [Compound A-30, N-[4-(4-Trifluoromethyl-phenylsulfamoyl)-naphthalen-1-yl]-benzamide] | < 30 µM |  |
| CCOC(=O)N1CCC(NS(=O)(=O)c2ccc(NC(=O)c3ccccc3)c3ccccc23)CC1 [Compound A-34, 4-(4-Benzoylamino-naphthalene-1-sulfonylamino)-piperidine-1-carboxylic acid ethyl ester] |  | < 30 µM |
| O=C(Nc1ccc(S(=O)(=O)NC2CCCC2)c2ccccc12)c1ccccc1 [Compound A-35, N-(4-Cyclopentysulfamoyl-naphthalen-1-yl)-benzamide] | < 0.5 µM |  |

The remaining lines, values ahead:

| Ki [1] | Ki [2] | Compound |
| --- | --- | --- |
| < 0.5 µM |  | CCOC(=O)N1CCC(NS(=O)(=O)c2cccc3c(C(=O)NC4CCCCC4C)cccc23)CC1 (racemic) [Compound H-24, (±)-4-[5-(2-Methyl-cyclohexylcarbamoyl)-naphthalene-1-sulfonylamino]-piperidine-1-carboxylic acid ethyl ester] |
| < 0.5 µM |  | CCCC(=O)N1CCC(NS(=O)(=O)c2cccc3c(C(=O)NC4CCCCC4C)cccc23)CC1 (racemic) [Compound H-29, (±)-5-(1-Butyryl-piperidin-4-ylsulfamoyl)-naphthalene-1-carboxylic acid (2-methyl-cyclohexyl)-amide] |
| < 0.5 µM |  | CCOC(=O)N1CCC(NS(=O)(=O)c2cccc3c(C(=O)NC4CCCC(C)C4C)cccc23)CC1 (racemic) [Compound H-30, (±)-4-[5-(2,3-Dimethyl-cyclohexylcarbamoyl)-naphthalene-1-sulfonylamino]-piperidine-1-carboxylic acid ethyl ester] |
| < 0.5 µM |  | CCCC(=O)N1CCC(NS(=O)(=O)c2cccc3c(C(=O)NC4CCCC(C)C4C)cccc23)CC1 (racemic) [Compound H-31, (±)-5-(1-Butyryl-piperidin-4-ylsulfamoyl)-naphthalene-1-carboxylic acid (2,3-dimethyl-cyclohexyl)-amide] |
| < 0.5 µM |  | CC1CCCCC1NC(=O)c1cccc2c(S(=O)(=O)NC3CCN(C(=O)N(C)C)CC3)cccc12 (racemic) [Compound H-33, (±)-4-[5-(2-Methyl-cyclohexylcarbamoyl)-naphthalene-1-sulfonylamino]-piperidine-1-carboxylic acid dimethylamide] |
| < 0.5 µM |  | CCOC(=O)N1CC[C@H](NS(=O)(=O)c2cccc3c(C(=O)Nc4ccccc4C)cccc23)[C@@H](C)C1 (racemic) [Compound H-40, (±)-trans-3-Methyl-4-(5-o-tolylcarbamoyl-naphthalene-1-sulfonylamino)-piperidine-1-carboxylic acid ethyl ester] |
| < 0.5 µM |  | Cc1ccccc1C(=O)Nc1ccc(S(=O)(=O)NC2CCN(C(=O)OC(C)(C)C)C2)c2c1CCC2 (racemic) [Compound H-68, (±)-3-[7-(2-Methyl-benzoylandno)-indane-4-sulfonylamino]-pyrrolidine-1-carboxylic acid tert-butyl ester] |
| < 0.5 µM |  | CCCC(=O)N1CCC(NS(=O)(=O)c2ccc(NC(=O)c3ccccc3C)c3c2CCC3)C1 (racemic) [Compound H-71, (±)-N-[7-(1-Butyryl-pyrrolidin-3-ylsulfamoyl)-indan-4-yl]-2-methyl-benzamide] |
| < 0.5 µM |  | CCOC(=O)N1CCC(NS(=O)(=O)c2ccc(NC(=O)c3ccccc3C)c3c2CCC3)C1 (racemic) [Compound H-72, (±)-3-[7-(2-Methyl-benzoylamino)-indane-4-sulfonylamino]-pyrrolidine-1-carboxylic acid ethyl eter] |
| < 1 µM |  | Cc1ccccc1C(=O)Nc1ccc(S(=O)(=O)NC2CCN(C(=O)N(C)C)C2)c2c1CCC2 (racemic) [Compound H-73, (±)-3-[7-(2-Methyl-benzoylamino)-indane-4-sulfonylamino]-pyrrolidine-1-carboxylic acid dimethylamide] |
| < 1 µM |  | Cc1ccccc1C(=O)Nc1ccc(S(=O)(=O)N[C@H]2CCN(Cc3ccccc3)C[C@H]2C)c2c1CCC2 (racemic) [Compound H-74, (±)-cis-N-[7-(1-Benzyl-3-methyl-piperidin-4-ylsulfamoyl)-indan-4-yl]-2-methyl-benzamide] |
| < 1 µM |  | Cc1ccccc1C(=O)Nc1ccc(S(=O)(=O)N[C@@H]2CCN(Cc3ccccc3)C[C@H]2C)c2c1CCC2 (racemic) [Compound H-75, (±)-trans-N-[7-(1-Benzyl-3-methyl-piperidin-4-ylsulfamoyl)-indan-4-yl]-2-methyl-benzamide] |
| < 0.5 µM |  | Cc1ccccc1C(=O)Nc1cccc2c(S(=O)(=O)N[C@H]3CCN(C(=O)CN(C)C)C[C@H]3C)cccc12 (racemic) [Compound K-1, (±)-(cis)-N-{5-[1-(2-Dimethylamino-acetyl)-3-methyl-piperidin-4-ylsulfamoyl]-naphthalen-1-yl}-2-methyl-benzamide] |
| < 1 µM |  | CCOC(=O)N1CC[C@@H](NS(=O)(=O)c2ccc(NC(=O)c3ccccc3C)c3ccccc23)[C@@H](C)C1 (single isomer, unassigned) [Compound C-138, cis-3-Methyl-4-[4-(2-methyl-benzoylamino)-naphthalene-1-sulfonylamino]-piperidine-1-carboxylic acid ethyl ester] |
| < 0.5 µM |  | CCCC(=O)N1CC[C@@H](NS(=O)(=O)c2ccc(NC(=O)c3ccccc3C)c3ccccc23)[C@@H](C)C1 (single isomer, unassigned) [Compound C-140, cis-N-[4-(1-butyryl-3-methyl-piperidin-4-ylsulfamoyl)-naphthalen-1-yl]-2-methyl-benzamiide] |
| < 1 µM |  | CCCC(=O)N1CC[C@@H](NS(=O)(=O)c2ccc(NC(=O)c3ccccc3C)c3ccccc23)[C@@H](C)C1 (single isomer, unassigned) [Compound C-141, cis-N-[4-(1-butyryl-3-methyl-piperidin-4-ylsuffamoyl)-naphthalen-1-yl]-2-methyl-benzamide] |
| < 0.5 µM |  | Cc1ccccc1C(=O)Nc1ccc(S(=O)(=O)N[C@H]2CCN(C(=O)C3CCCN3)C[C@H]2C)c2cccnc12 (stereo in doubt) [Compound J-38, (3R, 4S)-2-Methyl-N-{5-[3-methyl-1-((R)pyrrolidine-2-carbonyl)-piperidin-4-ylsulfamoyl]-quinolin-8-yl}-benzamide] |
| < 0.5 µM |  | Cc1ccccc1C(=O)Nc1ccc(S(=O)(=O)N[C@H]2CCN(C(=O)C(C)N)C[C@H]2C)c2cccnc12 (stereo in doubt) [Compound J-39, (3R, 4S)-N-{5-[1-(2-(R)-Amino-propionyl)-3-methyl-piperidin-4-ylsulfamoyl]-quinolin-8-yl}-2-methyl-benzamide] |
